From patent US4822790A, “1-Sulfo-2-oxoazetidine derivatives and their production” (Takeda Chemical Industries, Ltd., priority 1980, dated 1989)

Key:
Format in all cases: cell-based
[1] = test system: Staphylococcus aureus 308A-1; assay: Antibacterial test (MIC), Staphylococcus aureus 308A-1
From the text: (§1) The following is media and compounds employed in the antibacterial test.
(§2) TSA=Trypticase soy agar [Baltimore Biologicals (U.S.A.)]
(§3) B-TSA=Blood trypticase soy agar

[2] = test system: Enterobacter cloacae IFO 12937; assay: Antibacterial test (MIC), Enterobacter cloacae IFO 12937
From the text: as §1, §2, §3

Klebsiella pneumoniae DT = assay: Antibacterial test (MIC), Klebsiella pneumoniae DT
From the text: as §1, §2, §3

[3] = test system: Serratia marcescens IFO 12648; assay: Antibacterial test (MIC), Serratia marcescens IFO 12648
From the text: as §1, §2, §3

[4] = test system: Citrobacter freundii IFO 12681; assay: Antibacterial test (MIC), Citrobacter freundii IFO 12681
From the text: as §1, §2, §3

Escherichia coli 0-111 = assay: Antibacterial test (MIC), Escherichia coli 0-111; details: medium TSA
From the text: as §1, §2, §3

[5] = test system: Staphylococcus aureus FDA209P; assay: Antibacterial test (MIC), Staphylococcus aureus FDA209P
From the text: as §1, §2, §3

[6] = test system: Staphylococcus aureus 1840; assay: Antibacterial test (MIC), Staphylococcus aureus 1840
From the text: as §1, §2, §3

[7] = test system: Streptococcus pyogenes S-8; assay: Antibacterial test (MIC), Streptococcus pyogenes S-8
From the text: as §1, §2, §3

[8] = test system: Proteus vulgaris IFO 3988; assay: Antibacterial test (MIC), Proteus vulgaris IFO 3988
From the text: as §1, §2, §3

[9] = test system: Proteus morganii IFO 3168; assay: Antibacterial test (MIC), Proteus morganii IFO 3168
From the text: as §1, §2, §3

[10] = test system: Acinetobacter calcoaceticus IFO 13006; assay: Antibacterial test (MIC), Acinetobacter calcoaceticus IFO 13006
From the text: as §1, §2, §3

[11] = test system: Streptococcus mitis America; assay: Antibacterial test (MIC), Streptococcus mitis America
From the text: as §1, §2, §3

[12] = test system: Streptococcus pneumoniae Type I; assay: Antibacterial test (MIC), Streptococcus pneumoniae Type I
From the text: as §1, §2, §3

[13] = test system: Streptococcus faecium IFO 3128; assay: Antibacterial test (MIC), Streptococcus faecium IFO 3128
From the text: as §1, §2, §3

[14] = test system: Pseudomonas aeruginosa U 31; assay: Antibacterial test (MIC), Pseudomonas aeruginosa U 31
From the text: as §1, §2, §3

[15] = test system: Corynebacterium diphtheriae Toronto; assay: Antibacterial test (MIC), Corynebacterium diphtheriae Toronto
From the text: as §1, §2, §3

Escherichia coli T-7 = assay: Antibacterial test (MIC), Escherichia coli T-7; details: medium TSA
From the text: as §1, §2, §3

[16] = test system: Streptococcus pyogenes E-14; assay: Antibacterial test (MIC), Streptococcus pyogenes E-14
From the text: as §1, §2, §3

[17] = test system: Bordetella bronchiseptica Sagami; assay: Antibacterial test (MIC), Bordetella bronchiseptica Sagami
From the text: as §1, §2, §3

[18] = test system: Escherichia coli NIHJ JC-2; assay: Antibacterial test (MIC), Escherichia coli NIHJ JC-2
From the text: as §1, §2, §3

Candida albicans TA = assay: Antibacterial test (MIC), Candida albicans TA
From the text: as §1, §2, §3

[19] = test system: Proteus mirabilis IFO 3849; assay: Antibacterial test (MIC), Proteus mirabilis IFO 3849
From the text: as §1, §2, §3

[20] = test system: Pseudomonas aeruginosa IFO 3455; assay: Antibacterial test (MIC), Pseudomonas aeruginosa IFO 3455
From the text: as §1, §2, §3

In the case of `CON=C(C(=O)NC1CN(S(=O)(=O)[O-])C1=O)c1csc(N)n1.[Na+]` (centres unmarked) [Compound A, Sodium 3-[2-(2-amino-4-thiazolyl)-2-methoxyiminoacetamido]-2-oxoazetidine-1-sulfonate], the MIC ([1]; Staphylococcus aureus, 308A1, read-out: Minimum inhibitory concentration (MIC)) is reported as 25 µg/mL, the MIC ([2]; Enterobacter cloacae, IFO12937, read-out: Minimum inhibitory concentration (MIC)) is reported as greater than 100 µg/mL and the MIC (Klebsiella pneumoniae DT; Klebsiella pneumoniae, read-out: Minimum inhibitory concentration (MIC)) is reported as 0.78 µg/mL. For the same compound, the MIC ([3]; Serratia marcescens, IFO12648, read-out: Minimum inhibitory concentration (MIC)) was 12.5 µg/mL, the MIC ([4]; Citrobacter freundii, IFO12681, read-out: Minimum inhibitory concentration (MIC)) was 1.56 µg/mL and the MIC (Escherichia coli 0-111; Escherichia coli, 0111, read-out: Minimum inhibitory concentration (MIC)) was 0.39 µg/mL. For the same compound, the MIC ([5]; Staphylococcus aureus, FDA209P, read-out: Minimum inhibitory concentration (MIC)) was 50 µg/mL, the “Minimum inhibitory concentration (MIC)” value ([5]; medium B-TSA) was 50 µg/mL and the MIC ([6]; Staphylococcus aureus, 1840, read-out: Minimum inhibitory concentration (MIC)) was 100 µg/mL. The MIC ([7]; Streptococcus pyogenes, S8, read-out: Minimum inhibitory concentration (MIC)) was 3.13 µg/mL, the MIC ([8]; Proteus vulgaris, IFO3988, read-out: Minimum inhibitory concentration (MIC)) was 1.56 µg/mL and the MIC ([9]; Morganella morganii, IFO3168, read-out: Minimum inhibitory concentration (MIC)) was 25 µg/mL. It also gave an MIC ([10]; Acinetobacter calcoaceticus, IFO13006, read-out: Minimum inhibitory concentration (MIC)) of 6.25 µg/mL, an MIC ([11]; Streptococcus mitis, read-out: Minimum inhibitory concentration (MIC)) of 25 µg/mL and an MIC ([12]; Streptococcus pneumoniae, read-out: Minimum inhibitory concentration (MIC)) of 12.5 µg/mL. For the same compound, the MIC ([13]; Enterococcus faecium, IFO3128, read-out: Minimum inhibitory concentration (MIC)) was greater than 100 µg/mL, the MIC ([14]; Pseudomonas aeruginosa, U31, read-out: Minimum inhibitory concentration (MIC)) was greater than 100 µg/mL and the MIC ([15]; Corynebacterium diphtheriae, read-out: Minimum inhibitory concentration (MIC)) was 1.56 µg/mL. The MIC (Escherichia coli T-7; Escherichia coli, T7, read-out: Minimum inhibitory concentration (MIC)) was greater than 100 µg/mL, the MIC ([16]; Streptococcus pyogenes, E14, read-out: Minimum inhibitory concentration (MIC)) was 3.13 µg/mL and the MIC ([17]; Bordetella bronchiseptica, read-out: Minimum inhibitory concentration (MIC)) was 100 µg/mL. It also gave an MIC ([18]; Escherichia coli, NIHJJC2, read-out: Minimum inhibitory concentration (MIC)) of 0.78 µg/mL, an MIC (Candida albicans TA; Candida albicans, read-out: Minimum inhibitory concentration (MIC)) greater than 100 µg/mL and an MIC ([19]; Proteus mirabilis, IFO3849, read-out: Minimum inhibitory concentration (MIC)) of 6.25 µg/mL. For the same compound, the MIC ([20]; Pseudomonas aeruginosa, IFO3455, read-out: Minimum inhibitory concentration (MIC)) was 6.25 µg/mL.
In the case of `CCN1CCN(C(=O)N[C@@H](C(=O)NC2CN(S(=O)(=O)[O-])C2=O)c2cccs2)C(=O)C1=O.[Na+]` (stereo partly drawn) [Compound F, Sodium 3-[D-2-(4-ethyl-2,3-dioxo-1-piperazinocarboxamido)-2-thienylacetamido]-2-oxoazetidine-1-sulfonate], the “Minimum inhibitory concentration (MIC)” value ([1]; medium TSA) is reported as 6.25 µg/mL, the “Minimum inhibitory concentration (MIC)” value ([2]; medium TSA) is reported as 50 µg/mL and the “Minimum inhibitory concentration (MIC)” value (Klebsiella pneumoniae DT; medium TSA) is reported as 0.2 µg/mL. The “Minimum inhibitory concentration (MIC)” value ([3]; medium TSA) was 1.56 µg/mL, the “Minimum inhibitory concentration (MIC)” value ([4]; medium TSA) was 1.56 µg/mL and the “Minimum inhibitory concentration (MIC)” value (Escherichia coli 0-111) was 0.2 µg/mL. For the same compound, the “Minimum inhibitory concentration (MIC)” value ([5]; medium B-TSA) was 6.25 µg/mL, the “Minimum inhibitory concentration (MIC)” value ([5]; medium TSA) was 6.25 µg/mL and the “Minimum inhibitory concentration (MIC)” value ([6]; medium TSA) was 25 µg/mL. For the same compound, the “Minimum inhibitory concentration (MIC)” value ([7]; medium B-TSA) was 3.13 µg/mL, the “Minimum inhibitory concentration (MIC)” value ([8]; medium TSA) was less than 0.1 µg/mL and the “Minimum inhibitory concentration (MIC)” value ([9]; medium TSA) was 12.5 µg/mL. For the same compound, the “Minimum inhibitory concentration (MIC)” value ([10]; medium TSA) was 25 µg/mL, the “Minimum inhibitory concentration (MIC)” value ([11]; medium B-TSA) was 25 µg/mL and the “Minimum inhibitory concentration (MIC)” value ([12]; medium B-TSA) was 6.25 µg/mL. For the same compound, the “Minimum inhibitory concentration (MIC)” value ([13]; medium B-TSA) was greater than 100 µg/mL, the “Minimum inhibitory concentration (MIC)” value ([14]; medium TSA) was greater than 100 µg/mL and the “Minimum inhibitory concentration (MIC)” value ([15]; medium B-TSA) was 0.78 µg/mL. The “Minimum inhibitory concentration (MIC)” value (Escherichia coli T-7) was greater than 100 µg/mL, the “Minimum inhibitory concentration (MIC)” value ([16]; medium B-TSA) was 3.13 µg/mL and the “Minimum inhibitory concentration (MIC)” value ([17]; medium B-TSA) was greater than 100 µg/mL. The “Minimum inhibitory concentration (MIC)” value ([18]; medium TSA) was 0.78 µg/mL, the “Minimum inhibitory concentration (MIC)” value (Candida albicans TA; medium TSA) was greater than 100 µg/mL and the “Minimum inhibitory concentration (MIC)” value ([19]; medium TSA) was 0.78 µg/mL. The “Minimum inhibitory concentration (MIC)” value ([20]; medium TSA) was 6.25 µg/mL.
